Experimental findings from publication PMC6193938, “Characterization of a novel AICARFT inhibitor which potently elevates ZMP and has anti-tumor activity in murine models” (Scientific Reports, 2018) are described below.

SMILES strings stand for the structures.

Common to all, as to assay: CEREP protein kinase assay
Holding throughout (assay type): biochemical

One experiment addresses T1, CHK1 (Homo sapiens, UniProt O14757).
T1 construct: purchased CEREP Panlabs (Eurofins)
T1 sequence (O14757 1-476): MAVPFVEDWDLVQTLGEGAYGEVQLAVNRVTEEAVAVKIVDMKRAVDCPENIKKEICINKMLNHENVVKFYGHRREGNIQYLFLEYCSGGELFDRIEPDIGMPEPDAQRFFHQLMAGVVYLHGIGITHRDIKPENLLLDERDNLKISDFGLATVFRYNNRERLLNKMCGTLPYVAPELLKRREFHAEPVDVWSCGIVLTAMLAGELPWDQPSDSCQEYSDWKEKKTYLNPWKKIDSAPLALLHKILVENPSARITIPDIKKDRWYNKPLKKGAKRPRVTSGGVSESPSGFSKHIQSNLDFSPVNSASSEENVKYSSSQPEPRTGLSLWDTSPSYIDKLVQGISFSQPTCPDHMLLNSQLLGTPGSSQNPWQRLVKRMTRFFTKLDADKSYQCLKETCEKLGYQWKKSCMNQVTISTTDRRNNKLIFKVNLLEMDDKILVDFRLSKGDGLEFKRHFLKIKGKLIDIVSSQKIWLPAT

Another experiment addresses T2, FGFR1 (Homo sapiens, UniProt P11362).
T2 construct: purchased CEREP Panlabs (Eurofins)

A further experiment addresses T3, IKKb (Homo sapiens, UniProt O14920).
T3 construct: purchased CEREP Panlabs (Eurofins)
T3 sequence (O14920 1-756): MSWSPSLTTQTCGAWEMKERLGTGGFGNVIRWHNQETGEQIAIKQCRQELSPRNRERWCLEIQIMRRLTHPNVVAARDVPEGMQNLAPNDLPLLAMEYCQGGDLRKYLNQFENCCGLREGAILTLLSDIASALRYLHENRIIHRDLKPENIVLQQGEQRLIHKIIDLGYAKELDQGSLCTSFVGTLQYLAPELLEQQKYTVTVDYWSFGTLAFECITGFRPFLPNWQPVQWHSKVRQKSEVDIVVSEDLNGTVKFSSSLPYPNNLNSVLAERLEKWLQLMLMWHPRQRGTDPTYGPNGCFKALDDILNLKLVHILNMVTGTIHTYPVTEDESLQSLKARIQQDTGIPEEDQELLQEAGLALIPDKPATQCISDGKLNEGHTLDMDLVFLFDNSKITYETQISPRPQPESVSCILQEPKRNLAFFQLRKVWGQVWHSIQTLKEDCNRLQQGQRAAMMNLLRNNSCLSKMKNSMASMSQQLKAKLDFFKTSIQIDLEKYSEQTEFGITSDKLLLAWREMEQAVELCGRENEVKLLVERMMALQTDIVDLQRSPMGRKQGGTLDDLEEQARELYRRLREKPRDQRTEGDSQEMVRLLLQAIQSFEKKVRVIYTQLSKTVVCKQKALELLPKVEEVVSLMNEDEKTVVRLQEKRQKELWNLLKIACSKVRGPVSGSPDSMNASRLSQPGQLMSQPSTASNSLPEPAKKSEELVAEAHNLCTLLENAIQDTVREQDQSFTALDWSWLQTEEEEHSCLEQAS

The next experiment deals with T4, IRAK1 (Homo sapiens, UniProt P51617).
T4 construct: purchased CEREP Panlabs (Eurofins)

In a further experiment the target is T5, MUSK (Homo sapiens, UniProt O15146).
T5 construct: purchased CEREP Panlabs (Eurofins)
T5 sequence (O15146 24-869): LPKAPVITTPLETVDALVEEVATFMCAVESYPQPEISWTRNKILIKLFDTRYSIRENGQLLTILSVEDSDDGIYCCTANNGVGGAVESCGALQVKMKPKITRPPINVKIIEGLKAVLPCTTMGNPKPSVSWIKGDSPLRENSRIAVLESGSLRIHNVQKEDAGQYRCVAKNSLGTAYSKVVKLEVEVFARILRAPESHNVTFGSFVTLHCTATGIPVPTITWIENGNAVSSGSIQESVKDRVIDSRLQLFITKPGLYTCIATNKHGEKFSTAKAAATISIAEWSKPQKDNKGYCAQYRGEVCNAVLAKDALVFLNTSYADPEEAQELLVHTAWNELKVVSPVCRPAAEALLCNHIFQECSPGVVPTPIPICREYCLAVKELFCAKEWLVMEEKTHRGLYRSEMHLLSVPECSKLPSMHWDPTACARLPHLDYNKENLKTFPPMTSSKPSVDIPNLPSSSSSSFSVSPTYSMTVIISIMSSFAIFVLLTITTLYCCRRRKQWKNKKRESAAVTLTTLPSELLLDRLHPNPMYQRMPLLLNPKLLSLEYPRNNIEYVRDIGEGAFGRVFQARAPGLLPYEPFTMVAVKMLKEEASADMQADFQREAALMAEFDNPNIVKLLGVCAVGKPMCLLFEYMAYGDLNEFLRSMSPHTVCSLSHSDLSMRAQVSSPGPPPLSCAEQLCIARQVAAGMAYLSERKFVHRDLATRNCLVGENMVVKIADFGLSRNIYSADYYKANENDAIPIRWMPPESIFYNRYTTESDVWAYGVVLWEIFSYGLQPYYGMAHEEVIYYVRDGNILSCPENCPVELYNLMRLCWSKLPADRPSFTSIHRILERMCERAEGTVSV

The target of a further experiment is T6, PDGFRb (Homo sapiens, UniProt P09619).
T6 construct: purchased CEREP Panlabs (Eurofins)

For another experiment, the target named is T7, RSK1 (Homo sapiens, UniProt Q15418).
T7 construct: purchased CEREP Panlabs (Eurofins)
T7 sequence (Q15418 whole entry): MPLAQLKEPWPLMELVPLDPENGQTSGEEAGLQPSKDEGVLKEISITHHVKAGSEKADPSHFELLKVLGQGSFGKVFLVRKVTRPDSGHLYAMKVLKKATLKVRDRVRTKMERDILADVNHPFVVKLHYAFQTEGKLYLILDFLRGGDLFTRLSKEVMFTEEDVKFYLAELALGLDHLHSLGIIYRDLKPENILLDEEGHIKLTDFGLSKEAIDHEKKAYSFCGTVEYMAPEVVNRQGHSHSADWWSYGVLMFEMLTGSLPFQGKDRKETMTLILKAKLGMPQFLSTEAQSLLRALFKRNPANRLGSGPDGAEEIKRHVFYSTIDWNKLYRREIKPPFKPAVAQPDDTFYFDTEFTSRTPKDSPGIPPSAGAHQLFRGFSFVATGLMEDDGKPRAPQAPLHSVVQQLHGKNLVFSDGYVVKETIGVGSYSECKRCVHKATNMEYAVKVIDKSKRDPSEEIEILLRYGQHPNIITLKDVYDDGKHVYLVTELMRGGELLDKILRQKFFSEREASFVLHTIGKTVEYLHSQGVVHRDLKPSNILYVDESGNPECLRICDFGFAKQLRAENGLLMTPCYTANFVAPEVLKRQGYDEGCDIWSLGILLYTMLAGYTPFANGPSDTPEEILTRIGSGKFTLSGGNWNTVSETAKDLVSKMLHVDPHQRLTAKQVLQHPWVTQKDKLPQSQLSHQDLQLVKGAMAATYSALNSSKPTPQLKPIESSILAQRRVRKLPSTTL

T6 sequence (P09619 33-1106): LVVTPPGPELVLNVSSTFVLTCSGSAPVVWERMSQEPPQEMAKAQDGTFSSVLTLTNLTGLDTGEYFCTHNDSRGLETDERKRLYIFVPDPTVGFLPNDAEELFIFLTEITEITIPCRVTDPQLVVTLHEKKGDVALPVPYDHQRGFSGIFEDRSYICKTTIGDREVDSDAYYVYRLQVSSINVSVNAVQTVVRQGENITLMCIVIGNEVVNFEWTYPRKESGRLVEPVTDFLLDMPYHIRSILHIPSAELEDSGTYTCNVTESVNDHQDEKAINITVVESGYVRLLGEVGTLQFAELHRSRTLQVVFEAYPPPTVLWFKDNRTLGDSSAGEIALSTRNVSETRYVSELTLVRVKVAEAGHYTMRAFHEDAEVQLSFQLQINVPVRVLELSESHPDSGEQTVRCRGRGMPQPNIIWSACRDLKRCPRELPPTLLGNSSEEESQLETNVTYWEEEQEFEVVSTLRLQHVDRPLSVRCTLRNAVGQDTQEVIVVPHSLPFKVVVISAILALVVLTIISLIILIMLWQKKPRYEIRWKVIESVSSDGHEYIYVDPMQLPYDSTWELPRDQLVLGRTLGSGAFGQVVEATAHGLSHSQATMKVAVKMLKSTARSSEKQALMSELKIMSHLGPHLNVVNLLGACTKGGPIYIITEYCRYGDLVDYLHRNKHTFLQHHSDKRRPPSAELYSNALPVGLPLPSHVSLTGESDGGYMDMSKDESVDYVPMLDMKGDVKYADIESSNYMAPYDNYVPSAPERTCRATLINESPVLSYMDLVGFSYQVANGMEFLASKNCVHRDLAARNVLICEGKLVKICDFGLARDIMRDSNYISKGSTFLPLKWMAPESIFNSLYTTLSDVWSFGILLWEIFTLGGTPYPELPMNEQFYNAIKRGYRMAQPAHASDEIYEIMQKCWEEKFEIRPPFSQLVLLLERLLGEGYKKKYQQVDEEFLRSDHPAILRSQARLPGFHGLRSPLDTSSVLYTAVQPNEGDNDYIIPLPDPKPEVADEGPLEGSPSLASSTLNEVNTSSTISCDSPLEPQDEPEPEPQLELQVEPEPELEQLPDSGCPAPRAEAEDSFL
T2 sequence (P11362 22-822): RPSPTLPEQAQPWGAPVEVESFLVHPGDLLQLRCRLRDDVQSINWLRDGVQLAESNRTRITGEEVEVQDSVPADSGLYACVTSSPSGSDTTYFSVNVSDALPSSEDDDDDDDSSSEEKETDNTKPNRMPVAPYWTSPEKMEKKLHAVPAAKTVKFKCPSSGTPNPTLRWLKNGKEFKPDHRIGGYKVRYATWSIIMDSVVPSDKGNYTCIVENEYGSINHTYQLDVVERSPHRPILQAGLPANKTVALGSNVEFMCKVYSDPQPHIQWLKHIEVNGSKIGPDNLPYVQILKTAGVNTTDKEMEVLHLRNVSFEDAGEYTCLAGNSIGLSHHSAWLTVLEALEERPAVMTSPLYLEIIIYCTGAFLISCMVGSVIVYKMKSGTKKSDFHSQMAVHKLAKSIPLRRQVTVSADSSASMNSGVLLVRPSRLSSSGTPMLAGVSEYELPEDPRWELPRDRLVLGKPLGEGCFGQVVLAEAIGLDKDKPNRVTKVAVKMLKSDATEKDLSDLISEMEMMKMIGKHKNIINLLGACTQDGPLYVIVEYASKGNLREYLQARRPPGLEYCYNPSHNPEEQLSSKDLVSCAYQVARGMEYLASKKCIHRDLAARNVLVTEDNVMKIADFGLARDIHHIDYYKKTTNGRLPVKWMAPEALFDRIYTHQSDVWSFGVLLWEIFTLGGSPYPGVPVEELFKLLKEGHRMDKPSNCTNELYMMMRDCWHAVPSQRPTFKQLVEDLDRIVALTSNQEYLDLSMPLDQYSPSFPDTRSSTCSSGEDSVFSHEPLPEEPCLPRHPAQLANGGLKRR
T4 sequence (P51617 whole entry): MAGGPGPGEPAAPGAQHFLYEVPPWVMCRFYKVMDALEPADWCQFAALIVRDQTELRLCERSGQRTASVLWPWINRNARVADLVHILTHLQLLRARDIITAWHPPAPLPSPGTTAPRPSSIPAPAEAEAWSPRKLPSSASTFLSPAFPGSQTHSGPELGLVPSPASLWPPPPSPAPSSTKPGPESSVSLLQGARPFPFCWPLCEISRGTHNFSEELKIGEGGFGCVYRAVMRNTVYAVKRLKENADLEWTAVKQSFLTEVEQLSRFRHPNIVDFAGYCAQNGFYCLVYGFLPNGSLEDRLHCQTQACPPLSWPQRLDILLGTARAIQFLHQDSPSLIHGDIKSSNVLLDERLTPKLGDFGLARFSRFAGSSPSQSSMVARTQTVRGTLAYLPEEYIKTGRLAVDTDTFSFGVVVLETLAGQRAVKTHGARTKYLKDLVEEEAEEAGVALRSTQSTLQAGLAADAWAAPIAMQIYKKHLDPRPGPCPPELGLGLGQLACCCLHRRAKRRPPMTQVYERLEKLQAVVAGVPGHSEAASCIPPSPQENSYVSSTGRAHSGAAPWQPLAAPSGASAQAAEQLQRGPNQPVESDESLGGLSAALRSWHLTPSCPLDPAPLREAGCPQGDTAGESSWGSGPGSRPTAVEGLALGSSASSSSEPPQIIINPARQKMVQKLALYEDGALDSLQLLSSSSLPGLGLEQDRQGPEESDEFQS

Regarding `O=c1[nH]ccc2cc(F)c(NS(=O)(=O)c3ccc(N4CC[C@@H](O)C4)s3)cc12` [LSN3213128, N-(6-Fluoro-1-oxo-1,2-dihydroisoquinolin-7-yl)-5-[(3R)-3-hydroxypyrrolidin-1-yl]thiophene-2-sulfonamide], the inhibition at 0.2 µM was -8.96% on CHK1 (@ 0.2 uM); -9.3% on FGFR1 (@ 0.2 uM); -6.4% against IKKb (@ 0.2 uM); -0.781% at IRAK1 (@ 0.2 uM); -4.24% at MUSK (@ 0.2 uM); -85.9% against PDGFRb (@ 0.2 uM). Moreover, on RSK1 (@ 0.2 uM), the inhibition at 0.2 µM was found to be 0.638%. Also, the inhibition at 2 µM is 14.5% against CHK1 (@ 2 uM); 0.634% against FGFR1 (@ 2 uM); 0.126% against IKKb (@ 2 uM); 4.26% against IRAK1 (@ 2 uM); 5.22% at MUSK (@ 2 uM); -63.2% on PDGFRb (@ 2 uM). Further, at RSK1 (@ 2 uM), the inhibition at 2 µM turned out to be 8.18%. In addition, the inhibition at 20 µM at CHK1 (@ 20 uM) was 5.24%; on FGFR1 (@ 20 uM) it was 10.3%; against IKKb (@ 20 uM) it was 4.91%; against IRAK1 (@ 20 uM), 42.2%; against MUSK (@ 20 uM), -2.74%; at PDGFRb (@ 20 uM) it was -71%. The inhibition at 20 µM on RSK1 (@ 20 uM) is 11.4%.

A word on the inhibition: it is the relative decrease from the control value, in per cent.
